Laboratory results from patent publication US20170197937A1, “NEW CRYSTAL FORM OF PANTOPRAZOLE SODIUM COMPOUND AND PREPARATION METHOD THEREFOR” (priority 2015, published 2017).
Counter-ions that a name gives are not always drawn.

Columns and labels:
[1] = storage stability at normal temperature and air humidity; assay type: physicochemical; settings: 100 days stored at normal temperature and air humidity
Protocol: XRD pattern of the novel crystalline form M was shown in FIG. 1, comprising characteristic peaks (expressed in degrees 2θ) at 5.62, 11.62, 12.16, 13.80, 17.18, 18.80, 21.72, 23.44, 25.16 and 26.88. DSC thermogram of the novel crystalline form M was shown in FIG. 2, comprising an endothermic peak at 192.61° C. […] The product of the novel crystalline form M had higher bulk density and fluidity with an appearance of stubby rod, as shown in FIG. 3.

[2] = thermal stability test at 60° C. and 90% relative humidity; assay type: physicochemical; settings: for change of polymorph, purity and appearance: 15 days at 60° C. and 90% relative humidity, sodium salt
Protocol: The feature of the crystalline form M of Pantoprazole Sodium compound provided in the present invention is free of any crystalline solvents, and the melting point of the novel crystalline form is 192±2° C., which is higher than those of traditional crystalline forms. […] The product of the novel crystalline form has higher bulk density and fluidity with an appearance of stubby rod. The crystalline product especially has greater advantages in the preparation of formulations of Pantoprazole Sodium tablets, powder and subsequent other forms of such processes, due to the increased stability, fluidity and bulk density. At the same time, the product has better qualities in the process of filtering, washing, drying, packaging and storage due to the improvement of the properties described above.
1 g of dried solid Pantoprazole Sodium was added to 20 mL of n-butanol and n-pentanol (1:1, in volume) to form a suspension, and then 0.005 g BHA was added to the suspension under stirring, the suspension was heated to […] to make all the solid dissolved; and 60 mL of cyclohexane was dropwise added to the solution at a speed of 0.12 ml/min under constant temperature to obtain a suspension; meanwhile, a ultrasonic wave with a frequency of 20 KHz, a power of 50 W was applied, followed by cooling the solution down to 0° C. at a rate of 0.2° C./min, continuing to stir for 1 h, vacuum filtrating the crystal slurry, and the residue was dried at 50° C. and under normal pressure for 48 h to constant weight, to obtain crystalline form M of Pantoprazole Sodium product. XRD pattern of the novel crystalline form M was shown in FIG. 1, comprising characteristic peaks (expressed in degrees 2θ) at 5.62, 11.62, 12.16, 13.80, 17.18, 18.80, 21.72, 23.44, 25.16 and 26.88. DSC thermogram of the novel crystalline form M was shown in FIG. 2, comprising an endothermic peak at 192.61° C. […] The product of the novel crystalline form M had higher bulk density and fluidity with an appearance of stubby rod, as shown in FIG. 3.

[3] = acute toxicity test in Beagle dogs; assay type: in vivo; settings: dog, in vivo, doses 44-225 mg/kg
Protocol: (§1) 15 Beagle dogs were used for acute toxicity test, and given different doses of Pantoprazole Sodium of 44, 67, 100, 150 and 225 mg/kg. 3 animals belongs to each group and toxic reactions were observed after administration in each group. […] The Pantoprazole Sodium was divided into 5, 3 and […] groups by high, medium and low doses. The test period is 13 weeks. 80 healthy Wistar rats with males and females half and half were randomly divided into four groups, and were gavaged once a day regularly, drug withdrawal 2 weeks after administration 13 weeks, and then taken conventional toxicology observations and index detection.

Beagle dogs = experiment: acute toxicity test in Beagle dogs; assay type: in vivo; settings: at the dose of 150 mg/kg
Protocol: as §1

in vivo = settings: both, ICR, mouse, iv
Description: (§2) The median lethal dose method was taken for the acute toxicity test in mice. 50 ICR mice met experimental requirements were selected and randomly divided into 5 dose groups by weight, 10 animals each group with males and females half and half. […] Toxic reactions were observed during administration and after administration in mice.

Wistar rats = experiment: long-term toxicity test in rats (13 weeks)
Protocol: as §1

ICR mice = settings: intravenous injection
Description: as §2

[4] = cited from earlier work
[5] = toxic reaction tests (overall comparison); assay type: in vivo; settings: versus existing Pantoprazole Sodium

COc1ccnc(C[S+]([O-])c2nc3cc(OC(F)F)ccc3[n]2[Na+])c1OC (stereo not drawn) [Example 3, 5-difluoromethoxy-2-[(3,4-dimethoxy-2-pyridinyl)methyl]sulfinyl-1H-benzimidazole sodium salt]
change of polymorph, purity and color [1]: did not make any change
change of polymorph, purity and appearance [2]: did not make any change

COc1ccnc(C[S+]([O-])c2nc3cc(OC(F)F)ccc3[n]2[Na+])c1OC (stereo not drawn) [Example 1, 5-difluoromethoxy-2-[(3,4-dimethoxy-2-pyridinyl)methyl]sulfinyl-1H-benzimidazole sodium salt]
LD50 [3]: 70 mg/kg
toxic reactions (Beagle dogs): tremors, increased salivation, limp, vomiting, and death after 20 min
LD50 (in vivo): 392 mg/kg
toxicology observations and indexes, medium- and low-dose groups (Wistar rats; Wistar rats, gavage once a day, 13 weeks, 3 and 1 g/kg): no significant difference occurred
dose of nontoxic response (Wistar rats; both, Wistar, rat, in vivo, 13 weeks): 3000 mg/kg
histopathological examination (Wistar rats; rat, in vivo): liver cell degeneration occurred in one rat
indexes after drug withdrawal (Wistar rats; rat, in vivo): No obvious abnormality occurred
change of polymorph, purity and color [1]: did not make any change
change of polymorph, purity and appearance [2]: did not make any change
toxic reactions during administration (ICR mice): struggling, shortness of breath, limbs limp, difficulty breathing, and severe to death

COc1ccnc(C[S+]([O-])c2nc3cc(OC(F)F)ccc3[n]2[Na+])c1OC (stereo not drawn) [Example 4, 5-difluoromethoxy-2-[(3,4-dimethoxy-2-pyridinyl)methyl]sulfinyl-1H-benzimidazole sodium salt]
change of polymorph, purity and color [1]: did not make any change
change of polymorph, purity and appearance [2]: did not make any change

COc1ccnc(C[S+]([O-])c2nc3cc(OC(F)F)ccc3[n]2[Na+])c1OC (stereo not drawn) [Pantoprazole Sodium, 5-difluoromethoxy-2-[(3,4-dimethoxy-2-pyridinyl)methyl]sulfinyl-1H-benzimidazole sodium salt]
solubility in trichloromethane or ethyl ether ([4]; trichloromethane or ethyl ether): almost insoluble
solubility in water or methanol ([4]; water or methanol): soluble

COc1ccnc(C[S+]([O-])c2nc3cc(OC(F)F)ccc3[n]2[Na+])c1OC (stereo not drawn) [crystalline form M, 5-difluoromethoxy-2-[(3,4-dimethoxy-2-pyridinyl)methyl]sulfinyl-1H-benzimidazole sodium salt]
toxicity compared with existing Pantoprazole Sodium [5]: decreased toxicity
change of polymorph, purity and appearance [2]: do not changed
thermal stability ([2]; conclusion from 15 days at 60° C. and 90% relative humidity): better thermal stability

COc1ccnc(C[S+]([O-])c2nc3cc(OC(F)F)ccc3[n]2[Na+])c1OC (stereo not drawn) [Example 2, 5-difluoromethoxy-2-[(3,4-dimethoxy-2-pyridinyl)methyl]sulfinyl-1H-benzimidazole sodium salt]
change of polymorph, purity and color [1]: did not make any change
change of polymorph, purity and appearance [2]: did not make any change
